{
  "source": "patent EP0189679A1",
  "about": "“Novel crystalline form of 1-benzhydryl-4-allylpiperazine dihydrochloride and method for the production thereof” (SO \"PHARMACHIM\", priority 1984, dated 1986)",
  "key": {"[1]": {"assay": "Hygroscopicity study of ground samples in a humidity chamber", "format": "physicochemical", "settings": "90% humidity, 25°C, period of 30 days", "experimental": "Hygroscopicity studies have been carried out by placing samples of the three crystalline forms with the same particle size resulting from grinding of samples of the three crystalline forms in a vibratory mill. The studies take place in a chamber with 90% humidity and at a temperature of 25°C. At intervals, samples are taken in order to determine their water content and their crystalline structure by means of the methods described hereinabove. […] They are not hygroscopic and are physically stable under the test conditions.."}, "[2]": {"assay": "Stability study of the solid forms under ambient storage conditions in light-permeable glass jars", "format": "physicochemical", "settings": "ambient storage in glass jars permitting passage of light; over one year and after three years", "description": "More exhaustive stability studies have been performed under ambient storage conditions in glass jars which permit the passage of light therethrough. […] The three crystalline forms are chemically and physically stable under normal storage conditions."}, "[3]": {"assay": "Stability in aqueous solution (injectible compositions) of different crystalline forms", "format": "physicochemical", "settings": "dihydrochloride; for Content of active substance in the solution in %, In storing 1 year: stored 1 year; for Content of active substance in the solution in %, In storing 3 years: stored 3 years", "description": "Table 3 indicates comparative data concerning the stability of injectible forms of pharmaceutical compositions containing either crystalline form \"A\" according to the present invention and form \"B\" (aligerone prepared according to the method described in the aforementioned references to Zikolova and Ninov)."}, "[4]": {"assay": "Solubility profile / rate of dissolution of pulverous specimens in water", "format": "physicochemical", "settings": "25°C", "experimental": "The respective solubilities of the three crystalline modifications have also been studied. The rate of dissolution of pulverous specimens in water was determined in the following manner: a finely ground powder formed from the crystalline form under study in a quantity twice as great as necessary to produce a saturated solution in water is placed in a receptacle containing 100 ml of distilled water. The suspension is stirred using a magnetic agitator (600 r.p.m.) at a temperature of 25°C. At predetermined time intervals, samples are taken and, after filtering through a Milipor filter ([…]) they are diluted to the necessary volume for performing a quantitative determination. For this purpose, an absorption maximum at 250 nm is used."}, "[5]": {"assay": "Initial rate of dissolution of pressed discs in 0.1 N hydrochloric acid", "format": "physicochemical", "settings": "pressed disc 200 mg substance + 100 mg polyvinylchloride, 100 ml 0.1 N hydrochloric acid, 25°C, linear part between first and fifth minutes", "experimental": "In Table 4 which follows, there are compared the rates of dissolution of the. three crystalline forms. Investigations were carried out with pressed discs made up of 200 mg of the test substance and 100 mg of polyvinylchloride pressed at a pressure of 10 tonnes for 5 minutes in a plane around the disc using a pill making matrix with a diameter of 13 mm. The discs thus obtained are immersed by means of a special holding device in 100 ml of 0.1 N hydrochloric acid solution. Stirring was carried out by means of an electromagnetic agitator. The testing temperature employed was 25°C. The initial rates of dissolution are determined from the dissolution curves for the pressed discs, using the linear part between the first and fifth minutes. Comparison of data for the initial rate of dissolution of the three crystalline forms indicate that crystal form \"A\" has an initial rate of dissolution which is 3 to 4 times greater than that of the other forms."}, "[6]": {"tested_on": "blood vessels of the brain", "settings": "from Zikolova and Ninov and Drugs of the Future 1980, 5(1); cited from earlier work"}, "[7]": {"settings": "powder in 100 ml distilled water, 600 r.p.m."}},
  "data": [
    {"smiles": "C=CCN1CCN(C(c2ccccc2)c2ccccc2)CC1.Cl.Cl", "note": "[Form \"A\", 1-benzhydryl-4-allyl-piperazine dihydrochloride]", "values": [
      {"measurement": "hygroscopicity (water absorption)", "setting": "[1]", "result": "non-hygroscopic"},
      {"measurement": "chemical and physical stability on storage", "setting": "[2]", "result": "stable on storage under normal conditions"},
      {"measurement": "Content of active substance in the solution in %, Initial concentration", "setting": "[3]; listed as A", "result": 1.251, "unit": "%"},
      {"measurement": "Content of active substance in the solution in %, In storing 1 year", "setting": "[3]; listed as A", "result": 1.250, "unit": "%"},
      {"measurement": "Content of active substance in the solution in %, In storing 3 years", "setting": "[3]; listed as A", "result": 1.198, "unit": "%"},
      {"measurement": "time to attain maximum solubility", "setting": "[4]; [7]", "result": "≤ 2", "unit": "min"},
      {"measurement": "time until solubility reaches a constant value", "setting": "[4]; powder in 100 ml distilled water, 600 r.p.m., listed as form \"A\", dihydrochloride", "result": 10, "unit": "min"},
      {"measurement": "solubility in comparison with the other crystalline forms", "setting": "[4]; water, compared with anhydrous form \"B\" and the crystalline hydrate", "result": "higher equilibrium solubility"}
    ]},
    {"smiles": "C=CCN1CCN(C(c2ccccc2)c2ccccc2)CC1.Cl.Cl.O.O", "note": "[Crystalline hydrate, 1-benzhydryl-4-allylpiperazine dihydrochloride dihydrate, reference compound]", "values": [
      {"measurement": "time until solubility reaches a constant value", "setting": "[4]; [7]", "result": 60, "unit": "min"},
      {"measurement": "Initial rate of dissolving", "setting": "[5]", "result": 0.333, "unit": "mg/mL/min"}
    ]},
    {"smiles": "C=CCN1CCN(C(c2ccccc2)c2ccccc2)CC1.Cl.Cl", "note": "[Form \"B\", 1-benzhydryl-4-allylpiperazine dihydrochloride]", "values": [
      {"measurement": "Content of active substance in the solution in %, Initial concentration", "setting": "[3]; listed as B", "result": 1.255, "unit": "%"},
      {"measurement": "Content of active substance in the solution in %, In storing 1 year", "setting": "[3]; listed as B", "result": 1.105, "unit": "%"},
      {"measurement": "Content of active substance in the solution in %, In storing 3 years", "setting": "[3]; listed as B", "result": 0.925, "unit": "%"},
      {"measurement": "time until solubility reaches a constant value", "setting": "[4]; powder in 100 ml distilled water, 600 r.p.m., listed as form \"B\", dihydrochloride", "result": 60, "unit": "min"},
      {"measurement": "Initial rate of dissolving", "setting": "[5]; listed as B, dihydrochloride", "result": 0.467, "unit": "mg/mL/min"}
    ]},
    {"smiles": "C=CCN1CCN(C(c2ccccc2)c2ccccc2)CC1.Cl.Cl", "note": "[aligerone, 1-benzhydryl-4-allyl-piperazine dihydrochloride]", "values": [
      {"measurement": "effect on blood circulation and oxygen concentration of the brain compared with cinnarizine", "setting": "[6]", "result": "stronger than that of cinnarizine"}
    ]}
  ]
}
